Values quoted from earlier work in patent publication US20040062779A1, “Dermatologic composition using ultra-fine/micronized 1-ascorbic acid and other antioxidant ingredients in a stabilized anhydrous vehicle” (priority 2002, published 2004).

System: collagen synthesis
Details: in-vitro; Pinnell, Yale J. Biol. Med. 58:554 (1985)

**Q.** With O=C1O[C@H]([C@@H](O)CO)C(O)=C1O [ascorbic acid] as the molecule, how does the collagen synthesis read?
**A.** stimulates collagen synthesis
